This is an account of results in patent US20260151538A1, “DIFFERENTIATION AND REPROGRAMMING OF CHONDROCYTE” (ADA Forsyth Institute, Inc., priority 2022, published 2026).

SMILES strings stand for the structures.

In one assay the test system is GATA3. Particulars: literature reports (Attakpa 2009; Gocke 2009; Ahmad 2017); cited from earlier work.
The subject of another assay is ATDC5 cells. Kind of assay: ATDC5 micro-mass culture chondrogenesis, alcian blue staining. In kind it is cell-based, mouse. Particulars: ATDC5 cells in micro-mass culture; DHA at 0, 1, 5, 25 and 125 μM; quantified with ImageJ. The source says:
To further investigate the beneficial effects of GATA3 stimulation on cartilage regeneration, the inventors examined GATA3 activators in chondrogenesis. Using the ATDC5 cell line derived from mouse teratocarcinoma (undifferentiated embryonal carcinoma that can give rise to all three germ layers), the inventors first cultured the cells in micro-mass followed by differentiation into chondrocytes. Next, the inventors testes if the addition of GATA3 activators to the micro-mass culture could promote chondrogenesis. Staining was then performed to detect chondrogenic cells, which were positive for alcian blue. Imaging and quantitative analysis was then carried out to determine the percentage of the positively stained area using ImageJ.

With `Cc1ccc(C)c(OCCCC(C)(C)C(=O)O)c1` [Gemfibrozil], the “GATA3 expression (transcripts and proteins)” value (“GATA3 expression” for short) in the assay on GATA3 is “enhance GATA3 expression”. Besides, the “chondrocyte differentiation / chondrogenesis (percentage of alcian blue positively stained area)” value in the assay on ATDC5 cells is given as “substantial stimulated effects on chondrogenesis”.
For `Cc1cccc(Nc2cc(Cl)nc(SCC(=O)O)n2)c1C` [Pirinixic acid], the “GATA3 expression” value in the assay with GATA3 is “enhance GATA3 expression”. Further, the “chondrocyte differentiation / chondrogenesis (percentage of alcian blue positively stained area)” value with ATDC5 cells is “substantial stimulated effects on chondrogenesis”.
As for `Oc1ccc(-c2nc(-c3ccncc3)c(-c3ccc(F)cc3)[nH]2)cc1` [SB202190], the “GATA3 expression” value in the assay on GATA3 is listed as “enhance GATA3 expression”. For the same compound, the “chondrocyte differentiation / chondrogenesis (percentage of alcian blue positively stained area)” value with ATDC5 cells is “substantial stimulated effects on chondrogenesis”.
As for `Nc1nc2c(cnn2CCc2ccccc2)c2nc(-c3ccco3)nn12` [SCH 58261], in the assay with GATA3, the “GATA3 expression” value was “enhance GATA3 expression”.
For the compound `N#CC(=C(/N)Sc1ccccc1N)/C(C#N)=C(\N)Sc1ccccc1N` [U0126], the “GATA3 expression” value in the assay with GATA3 is listed as “enhance GATA3 expression”.
